Results: patent US9642922B2, “Caspase-triggered nano-aggregation probes and methods of use” (The Board of Trustees of the Leland Stanford Junior …, priority 2013, dated 2017)
Numbered stars: 1 amine (or outer) side, 2 acyl side, 3 side chain; on linkers, the order of the positions; unused ones are H or OH. Square brackets hold non-standard residues; d marks the D form. Peptide text beside a SMILES is read from it. * marks the point of attachment. DOTA = O=C(O)CN1CCN(CC(=O)O)CCN(CC(=O)*)CCN(CC(=O)O)CC1; X1 = O=C(C1CSC(c2nc3ccc(N[*:1])cc3s2)=N1)[*:2]; X3 = c1cnc2ccc(OCCCN*)cc2c1; SEt = CCS*

Key:
[1] = Water proton r1 relaxivity measurement; format: physicochemical; settings: 1 T
Method: Water proton r1 relaxivities of probe 15 and 1-ctrl (19) before and after caspase-3 incubation were then measured at 1, 1.5 and 3 T. For comparison, the isolated cyclized products 2-I and 2-II were also measured.
A series of solutions containing contrast agents with five different concentrations (0.05-0.5 mM) in Caspase buffer (pH 7.4) were treated with or without Casp-3 (50 nM) at 37° C. overnight. The solutions were placed in PCR tubes, bundled together, and MR-imaged at 1 T (Bruker Icon, Bruker BioSpin Corp.), […], 1.5 and 3 T (Signa HDx, GE Healthcare) at room temperature.
The scanning procedure began with a localizer and then consisted of a series of inversion-prepared fast spin echo scans, identical in all aspects (TR 8000 ms (6000 ms for Bruker Icon), TE minimum, field of view 6 cm, slice thickness 2 mm, matrix 128×128, NEX 1) except for the inversion time (TI) that was varied as: 4000, 2400, 1200, 800, 600, 400, 300, 200, 100, and 50 ms. For quantitative data analysis, the acquired MR images were transferred as DICOM images to an offline workstation, and signal intensities were extracted from each of the 5 samples at each of the 10 TI times by manual region of interest (ROI) placement and voxel averaging within the ROI.
Signal intensity versus TI relationships were fit to the following exponential T1 recovery model by non-linear least squares regression: SI (TI)=S0[1−2*exp(−TI/T1)+exp(−TR/T1)]. Relaxation rates (R1) were determined as 1/T1. Longitudinal relaxivities (r1, units of mM^−1s^−1) were calculated as the slope of R1 vs [Gd] after the determination of true Gd concentration of each sample by the ICP-MS measurement.

[2] = tested on: HeLa cells; test: ICP-MS cellular uptake of Gd in HeLa cells; format: cell-based, human; settings: 250 μM, 24 h
Method: The cellular uptake of Gd was studied by inductively-coupled plasma mass spectrometry (ICP-MS) analysis of the amount of Gd in viable and apoptotic cells after incubation with probe 15 (50-250 μM) for 24 h. […] This uptake enhancement was inhibitable by Z-VAD-fmk (50 μM), confirming the caspase-3-dependent accumulation of probe 15 in apoptotic cells.

[3] = tested on: subcutaneous HeLa tumors; test: In vivo MR imaging of doxorubicin-treated HeLa tumors; design: species or system mouse; settings: up to 4 h
Method: Evaluation of activatable contrast agent probe 15 for MR imaging of caspase-3 activity in vivo was performed in nude mice bearing subcutaneous HeLa tumors. Tumors were implanted and grown for 10-15 days before receiving intratumoral injections of two doses of 0.2 mg doxorubicin separated by 2 days. Probe 15 or 1-ctrl (19) (0.1 mmol kg^−1) was injected intravenously the day before treatment (baseline) and four days post-treatment (treated). Spin-echo T1-weighted multislice MR images at 1 T were recorded before (pre-contrast) and every 4 min after contrast agent administration (post-contrast), and scanning was carried out for 4 h post-contrast for each mouse. Much brighter MR signals (T1 contrast) were observed 40 and 120 min after injection with probe 15 in treated tumors as compared to that in baseline tumors (FIG. 29A), or in treated tumors with 1-ctrl (19) (FIG. 29B).
In vivo MR imaging was performed on an Aspect M2 1T permanent magnet (Aspect Imaging, Shoham, Israel) using a 40 mm Transmit/Receive mouse body coil. During imaging, the animals were anaesthetized with isofluorane and their respiration and body temperature were constantly monitored. Intravenous contrast injection at 0.1 mmol/kg concentration was administered in a 100 μL volume for every imaging session. Multi-slice (312 μm in-plane, 12 slices with 1 mm thickness) T1-weighted spin echo images (TE/TR=8.9/250 ms, matrix 128×128, FOV=40 mm, NEX=6) were acquired, one before contrast injection and then every 4 min up to 4 h after contrast injection. A 1 mM Dotarem reference tube was inserted in the field of view to enable inter-session variability correction during post-processing. Each animal underwent two imaging session; one before DOX treatment (baseline), and one after DOX treatment (treated).
Acquired MR data were transferred as DICOM images to an offline workstation and ImageJ (NIH) was used for post processing and quantitative image analysis. This consisted of manual segmentation of tumor ROI for each slice, slice-wise normalization of mean tumor signal intensity with the 1 mM Dotarem reference standard to account for inter-session variability, followed by combining these normalized, slice-wise values to generate mean volumetric tumor signal intensities (SI) for each time point.
Signal enhancement was calculated at each time point as the difference between the tumor SI at that time point and the tumor SI in the pre-contrast (t=0) dataset. SE(t)=SI(t)−SI(t=0); for each mouse, for every session
This metric was used to quantify the difference in SE between the baseline (before DOX treatment) session and the treated session for each mouse, as a means to tease out the difference between the two contrast agents, probe 1 and 1-cntl (19) over the time course of the imaging session. % D(t)=[SE(t,treated)−SE(t,baseline)]/SE(t,baseline); for each mouse.

[4] = molecular target: T1, caspase-3 (Homo sapiens, UniProt P42574); test: HPLC assay of caspase-3-triggered cyclization of MRI probe 15; format: biochemical; design: purchased Sigma; host or cells: E. coli
T1 sequence (P42574 29-175 limits assumed): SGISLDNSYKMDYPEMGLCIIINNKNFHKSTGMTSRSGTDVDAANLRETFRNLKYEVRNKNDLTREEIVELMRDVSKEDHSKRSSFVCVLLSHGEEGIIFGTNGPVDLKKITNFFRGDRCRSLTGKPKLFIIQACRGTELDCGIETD
T1 sequence (P42574 176-277 limits assumed): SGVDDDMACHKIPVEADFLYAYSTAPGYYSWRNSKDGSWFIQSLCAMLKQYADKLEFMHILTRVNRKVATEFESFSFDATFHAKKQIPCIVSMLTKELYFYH
Method: The progression of caspase-3-triggered intramolecular cyclization of probe 15 in solution was investigated by incubation (200 μM) with recombinant human caspase-3 (50 nM) using high-performance liquid chromatography (HPLC). […] More than 90% of probe 15 and its disulfide bond reduced intermediates could be converted after 5 h (FIG. 27B).

[5] = tested on: HeLa cell pellets; test: MRI T1 of HeLa cell pellets at 1 T; format: cell-based, human; settings: 250 μM, 24 h
Excerpt: Thus, higher caspase-3 activity in apoptotic cells can trap probe 15 inside cells, resulting in higher MRI contrast for cell apoptosis imaging.

[6] = Stability of PET tracers in mouse serum; format: in vitro ADME; settings: 1 h incubation, 37° C.
Method: To the mouse serum (500 μL) 100 μL (approximately 100 μCi/3.7 MBq) of radioactive sample was added and the mixture was incubated at 37° C. At each time point, 100 μL of sample was taken and after mixing with 100 μL of acetonitrile was centrifuged at 9,400×g for 5 min. The resulting supernatants were collected, and an aliquot of each supernatant (100 μL) was diluted with 100 μL of water and analyzed via the same HPLC method used for quality control (fitted with a highly sensitive positron detector for radioactivity). The percent ratio of intact compound to the total radioactivity on the HPLC chromatogram was calculated as %=[(peak area for intact compound)/(total peak area)]×100.

[7] = molecular target: T1, caspase-3; test: Incubation of PET tracer with recombinant caspase-3, radio-HPLC; format: biochemical; settings: same condition
Method: To evaluate the activatable PET tracer 1 for caspase-3 detection, it was first incubated with recombinant caspase-3 in buffer.

[8] = tested on: HeLa tumor xenograft; test: PET imaging of HeLa tumor xenograft-bearing nude mice; format: in vivo, mouse
Method: One group of animals was scanned at baseline (before treatment) and 4 days post treatment with 0.2 mg doxorubicin injected into the tumor. On the day of scanning, the animals were moved from their housing area to the PET scanner around 1 h prior to the experiment. They were constrained shortly in a tail veiner and injected intravenously, with 440±97 μCi (16±3 MBq) [^18F]C-SNAT formulation. They were anesthetized with 2% isoflurane shortly before placement in an R4 microPET scanner (Siemens Medical Solutions, USA). The anesthesia were continued with 2% isoflurane doing 5 min of acquisition. Scans using the control tracer 1-D (173±73 μCi/9±4 Mbq in 200 μL formulation) were carried out in a similar manner using two groups (one baseline and one treated) instead of the same animals at baseline and after treatment. The images were reconstructed using a standard 2D reconstruction without attenuation correction.
The reconstructed images were analyzed by making two volumes of interest (VOI), one on the tumor and one located on the left shoulder corresponding to muscle/bone mixture. The percent of injected dose per gram tissue (% ID/g) was calculated in each VOI and the ratio between tumor and muscle uptake was calculated based on this uptake (uptake in tumor/uptake in muscle region). The effect of treatment was calculated as the difference in uptake of [^18F]C-SNAT at baseline and after treatment.
Evaluation of activatable PET tracer 1 and control tracer 1-D for PET imaging of caspase-3 activity in vivo was performed in HeLa tumor xenograft-bearing nude mice. Tumors were implanted and grown for a minimum of 10 d before receiving intratumoral injection of 0.2 mg DOX (20 μL). 1 or 1-D (5-15 MBq/135-405 μCi) was injected through the tail vein for PET imaging 4 d post treatment. Static PET scans (5 min) were performed 65, 125 and 182 mins post tracer injection.

reduction of relaxivity after incubation with caspase-3 [1] [%] | r1 relaxivity without caspase-3 activation [1] [mM⁻¹ s⁻¹] | intact tracer in mouse serum [6] [%] | cleavage by caspase-3 [7] | Compound | uptake of Gd in STS-treated cells compared with probe 15 [2] | difference in SI enhancement between treated and baseline tumors [3] | products observed after incubation with caspase-3 [4] | difference in T1 between STS-treated and non-treated cells [5] | uptake difference between before and after treatment ([8]; control tracer) | change of T/M ratio ([8]; mouse, in vivo) | uptake in treated and non-treated tumors compared with 1 ([8]; mouse, in vivo)
14 | – | – | – | CCSSCC(NC(=O)C(CC(=O)O)NC(=O)C(NC(=O)C(CCC(=O)O)NC(=O)C(CC(=O)O)NC(C)=O)C(C)C)C(=O)NC(CCCCNC(=O)CN1CCN(CC(=O)[O-])CCN(CC(=O)[O-])CCN(CC(=O)[O-])CC1)C(=O)Nc1ccc2nc(C3=NC(C(=O)NCCCOc4ccc5ncccc5c4)CS3)sc2c1.[Gd+3] (stereo not drawn) [1-ctrl (19)] (Ac-DEVDC(SEt)K(DOTA)[X1]-X3; configuration not given here) | much lower uptake of Gd | no significant difference in SI enhancement | only the DEVD peptide cleaved and disulfide reduced product was observed | – | – | – | –
– | 4.8 | – | – | CNC[C@H](O)[C@@H](O)[C@H](O)[C@H](O)CO.O=C([O-])CN1CCN(CC(=O)[O-])CCN(CC(=O)O)CCN(CC(=O)[O-])CC1.[Gd+3] [Dotarem, reference compound] | much lower uptake of Gd | – | – | no significant reduction in T1 | – | – | –
– | – | 90 | could not be cleaved by caspase-3 | CSCC(NC(=O)C(CC(=O)O)NC(=O)C(NC(=O)C(CCC(=O)O)NC(=O)C(CC(=O)O)NC(C)=O)C(C)C)C(=O)NC(Cc1cn(CCOCCOCCOCC[18F])nn1)C(=O)Nc1ccc2nc(C3=NC(C(=O)NCCCOc4ccc5ncccc5c4)CS3)sc2c1 (stereo not drawn) [1-D] | – | – | – | – | less than 0.2 % ID/g | did not show significant increases | much lower than that of 1
